Data from patent publication US10479795B2 (Incyte Corporation, priority 2016, dated 2019).
Counter-ions that a name gives are not always drawn. Like-named read-outs stand apart in the source and are kept apart here.

Experiments:
[1] = molecular target: PI3Kδ (p110δ/p85α) Recombinant Human Protein (Homo sapiens (Human), UniProt O00329); experiment: PI3Kδ Scintillation Proximity Assay; assay type: biochemical
Method in brief: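 Recombinant human p110δ/p85α (3.4 nM) with 20 μM PIP2 and 2 μM ATP plus [γ-33P]ATP, in 20 mM MOPS pH 6.7, 10 mM MgCl2, 5 mM DTT, 0.03% CHAPS, 2% DMSO; 120 min at room temperature. Product captured on WGA SPA beads, scintillation counted; IC50 from percent-of-control curves.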

[2] = tested on: Phosphorylated Ribosomal Protein S6 (RPS6); experiment: THP-1 RPS6 ELISA Assay; assay type: cell-based, Human; conditions: THP-1 cells, read-out: PI3Kγ_THP1_RPS6_ELISA IC50
Method in brief: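 Serum-starved THP-1 cells were preincubated with a concentration range of compound for 2 h at 37 °C, then stimulated with 10 nM MCP-1 for 15 min. Phospho-RPS6 in lysates was quantified by ELISA at 450 nm. IC50 came from percent inhibition versus log inhibitor concentration.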

[3] = molecular target: PI3Kγ (p110γ) Recombinant Human Protein (Homo sapiens (Human), UniProt P48736); experiment: PI3K-γ Scintillation Proximity Assay; assay type: biochemical; conditions: read-out: PI3Kγ IC50
Chain of PI3Kγ (p110γ) Recombinant Human Protein (P48736 whole entry): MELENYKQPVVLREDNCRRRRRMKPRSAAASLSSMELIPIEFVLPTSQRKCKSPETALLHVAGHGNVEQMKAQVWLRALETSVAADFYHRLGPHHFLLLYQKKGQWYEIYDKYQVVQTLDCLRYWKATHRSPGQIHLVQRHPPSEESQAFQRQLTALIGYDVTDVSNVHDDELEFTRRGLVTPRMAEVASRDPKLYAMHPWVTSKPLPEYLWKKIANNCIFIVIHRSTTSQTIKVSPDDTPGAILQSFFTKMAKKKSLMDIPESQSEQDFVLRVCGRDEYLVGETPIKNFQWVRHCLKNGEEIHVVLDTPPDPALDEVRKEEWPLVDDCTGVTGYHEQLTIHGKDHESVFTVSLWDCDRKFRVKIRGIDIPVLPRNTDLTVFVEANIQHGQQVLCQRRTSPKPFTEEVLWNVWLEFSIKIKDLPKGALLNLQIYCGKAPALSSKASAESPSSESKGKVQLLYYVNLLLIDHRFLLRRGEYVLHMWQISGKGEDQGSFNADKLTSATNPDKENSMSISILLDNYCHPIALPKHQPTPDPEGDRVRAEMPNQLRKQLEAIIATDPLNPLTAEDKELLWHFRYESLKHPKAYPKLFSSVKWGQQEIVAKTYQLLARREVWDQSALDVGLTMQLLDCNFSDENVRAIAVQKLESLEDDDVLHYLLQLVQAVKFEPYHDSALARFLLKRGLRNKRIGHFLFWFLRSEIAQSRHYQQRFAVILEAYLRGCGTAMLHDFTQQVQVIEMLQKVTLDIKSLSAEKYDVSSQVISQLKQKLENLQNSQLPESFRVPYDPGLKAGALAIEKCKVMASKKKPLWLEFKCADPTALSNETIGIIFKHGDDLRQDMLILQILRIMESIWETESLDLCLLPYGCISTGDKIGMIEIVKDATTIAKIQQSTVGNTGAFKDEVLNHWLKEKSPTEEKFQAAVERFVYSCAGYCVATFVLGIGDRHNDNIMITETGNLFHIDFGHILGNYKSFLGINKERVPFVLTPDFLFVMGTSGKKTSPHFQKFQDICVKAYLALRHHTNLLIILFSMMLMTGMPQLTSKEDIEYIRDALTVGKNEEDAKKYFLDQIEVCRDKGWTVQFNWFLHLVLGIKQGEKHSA
Method in brief: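 Recombinant human p110γ assayed at room temperature in 20 mM MOPS pH 6.7, 10 mM MgCl2, 5 mM DTT, 0.03% CHAPS, 2% DMSO, with 20 μM PIP2 and 2 μM ATP plus [γ-33P]ATP. Product captured on WGA SPA beads overnight and counted; IC50 fitted from % of solvent-control activity versus log inhibitor concentration.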

Chain of PI3Kδ (p110δ/p85α) Recombinant Human Protein (O00329 whole entry): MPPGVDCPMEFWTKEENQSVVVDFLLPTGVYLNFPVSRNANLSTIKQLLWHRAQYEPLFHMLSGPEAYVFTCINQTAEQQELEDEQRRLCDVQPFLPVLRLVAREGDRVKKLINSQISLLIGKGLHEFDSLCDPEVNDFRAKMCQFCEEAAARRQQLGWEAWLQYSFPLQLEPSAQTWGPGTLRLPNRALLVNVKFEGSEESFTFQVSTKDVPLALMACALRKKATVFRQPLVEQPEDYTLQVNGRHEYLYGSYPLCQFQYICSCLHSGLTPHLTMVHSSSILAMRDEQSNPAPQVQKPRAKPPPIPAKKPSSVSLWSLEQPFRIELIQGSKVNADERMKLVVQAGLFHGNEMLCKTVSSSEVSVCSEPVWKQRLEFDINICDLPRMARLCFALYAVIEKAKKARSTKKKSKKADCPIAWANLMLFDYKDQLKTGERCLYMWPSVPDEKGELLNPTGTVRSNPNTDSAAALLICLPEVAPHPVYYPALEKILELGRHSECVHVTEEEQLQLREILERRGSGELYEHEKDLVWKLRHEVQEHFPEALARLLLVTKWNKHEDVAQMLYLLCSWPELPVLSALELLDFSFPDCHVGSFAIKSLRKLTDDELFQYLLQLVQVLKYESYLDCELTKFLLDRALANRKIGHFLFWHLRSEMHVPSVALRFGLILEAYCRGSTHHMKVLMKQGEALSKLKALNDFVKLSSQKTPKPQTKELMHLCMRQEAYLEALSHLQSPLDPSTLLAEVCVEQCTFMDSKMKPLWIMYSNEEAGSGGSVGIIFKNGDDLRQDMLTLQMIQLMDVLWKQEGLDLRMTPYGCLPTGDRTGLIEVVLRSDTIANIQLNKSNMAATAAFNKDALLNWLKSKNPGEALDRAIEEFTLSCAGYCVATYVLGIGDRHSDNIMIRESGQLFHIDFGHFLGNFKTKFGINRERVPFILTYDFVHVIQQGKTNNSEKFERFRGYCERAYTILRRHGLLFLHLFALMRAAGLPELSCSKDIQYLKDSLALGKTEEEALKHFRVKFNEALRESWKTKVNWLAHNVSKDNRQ
Chain of PI3Kδ (p110δ/p85α) Recombinant Human Protein (P27986 whole entry partner): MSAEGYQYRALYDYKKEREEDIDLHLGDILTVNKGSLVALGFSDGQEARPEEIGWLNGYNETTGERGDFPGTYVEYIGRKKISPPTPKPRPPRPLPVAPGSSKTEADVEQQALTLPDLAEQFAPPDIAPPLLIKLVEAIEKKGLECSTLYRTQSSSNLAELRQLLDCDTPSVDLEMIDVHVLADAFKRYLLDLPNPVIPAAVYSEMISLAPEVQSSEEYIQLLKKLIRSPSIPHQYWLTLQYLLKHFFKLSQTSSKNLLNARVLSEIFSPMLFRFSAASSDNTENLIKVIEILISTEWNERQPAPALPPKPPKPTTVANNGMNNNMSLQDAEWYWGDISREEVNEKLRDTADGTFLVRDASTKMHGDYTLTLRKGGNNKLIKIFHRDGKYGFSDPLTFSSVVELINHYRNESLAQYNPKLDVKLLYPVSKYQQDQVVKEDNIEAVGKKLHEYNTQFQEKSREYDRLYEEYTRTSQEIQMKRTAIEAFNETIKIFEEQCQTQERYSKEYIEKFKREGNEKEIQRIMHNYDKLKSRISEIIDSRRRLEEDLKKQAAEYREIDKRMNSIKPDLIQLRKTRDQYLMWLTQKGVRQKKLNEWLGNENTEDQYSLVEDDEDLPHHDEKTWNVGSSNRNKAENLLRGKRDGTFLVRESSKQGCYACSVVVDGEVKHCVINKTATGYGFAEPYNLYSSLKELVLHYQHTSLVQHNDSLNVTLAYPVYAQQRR

Cc1ccc(S(C)(=O)=O)cc1-c1cnc2c(N)nc(-c3cccc(CC#N)c3)cn12 [Example 474, 2-(3-(8-Amino-3-(2-methyl-5-(methylsulfonyl)phenyl)imidazo[1,2-a]pyrazin-6-yl)phenyl)acetonitrile trifluoroacetate]
IC50 [1]: 100 to 500 nM | IC50 ([2]; Homo sapiens): 100 to 500 nM | IC50 [3]: < 100 nM

Cc1ccc(S(C)(=O)=O)cc1-c1cnc2c(N)nc(-c3ccc(C(F)F)cc3)cn12 [Example 475, 6-(4-(Difluoromethyl)phenyl)-3-(2-methyl-5-(methylsulfonyl)phenyl)imidazo[1,2-a]pyrazin-8-amine trifluoroacetate]
IC50 [1]: 100 to 500 nM | IC50 ([2]; Homo sapiens): 500 to 1000 nM | IC50 [3]: < 100 nM

Cc1ccc(S(C)(=O)=O)cc1-c1cnc2c(N)nc(-c3ccncc3F)cn12 [Example 476, 6-(3-Fluoropyridin-4-yl)-3-(2-methyl-5-(methylsulfonyl)phenyl)imidazo[1,2-a]pyrazin-8-amine trifluoroacetate]
IC50 [1]: 100 to 500 nM | IC50 ([2]; Homo sapiens): 100 to 500 nM | IC50 [3]: < 100 nM

COc1ncccc1-c1cn2c(-c3cc(S(C)(=O)=O)ccc3C)cnc2c(N)n1 [Example 477, 6-(2-Methoxypyridin-3-yl)-3-(2-methyl-5-(methylsulfonyl)phenyl)imidazo[1,2-a]pyrazin-8-amine trifluoroacetate]
IC50 [1]: 100 to 500 nM | IC50 [2]: 100 to 500 nM | IC50 [3]: < 100 nM

Cc1ccc(S(C)(=O)=O)cc1-c1cnc2c(N)nc(-c3cccc(CO)c3F)cn12 [Example 481, (3-(8-Amino-3-(2-methyl-5-(methylsulfonyl)phenyl)imidazo[1,2-a]pyrazin-6-yl)-2-fluorophenyl)methanol]
IC50 [1]: 100 to 500 nM | IC50 ([2]; Homo sapiens): 100 to 500 nM | IC50 [3]: < 100 nM

Cc1ccc(S(C)(=O)=O)cc1-c1cnc2c(N)nc(-c3ccc(N)nc3)cn12 [Example 482, 6-(6-Aminopyridin-3-yl)-3-(2-methyl-5-(methylsulfonyl)phenyl)imidazo[1,2-a]pyrazin-8-amine trifluoroacetate]
IC50 [1]: 500 to 2000 nM | IC50 ([2]; Homo sapiens): > 1000 nM | IC50 [3]: < 100 nM

COc1nccc(-c2cn3c(-c4cc(S(C)(=O)=O)ccc4C)cnc3c(N)n2)c1F [Example 483, 6-(3-Fluoro-2-methoxypyridin-4-yl)-3-(2-methyl-5-(methylsulfonyl)phenyl)imidazo[1,2-a]pyrazin-8-amine trifluoroacetate]
IC50 [1]: < 100 nM | IC50 ([2]; Homo sapiens): > 1000 nM | IC50 [3]: < 100 nM

Cc1ccc(S(C)(=O)=O)cc1-c1cnc2c(N)nc(-c3ccncc3Cl)cn12 [Example 484, 6-(3-Chloropyridin-4-yl)-3-(2-methyl-5-(methylsulfonyl)phenyl)imidazo[1,2-a]pyrazin-8-amine trifluoroacetate]
IC50 [1]: 100 to 500 nM | IC50 ([2]; Homo sapiens): 100 to 500 nM | IC50 [3]: < 100 nM

COc1cnccc1-c1cn2c(-c3cc(S(C)(=O)=O)ccc3C)cnc2c(N)n1 [Example 485, 6-(3-Methoxypyridin-4-yl)-3-(2-methyl-5-(methylsulfonyl)phenyl)imidazo[1,2-a]pyrazin-8-amine trifluoroacetate]
IC50 [1]: 100 to 500 nM | IC50 ([2]; Homo sapiens): 100 to 500 nM | IC50 [3]: < 100 nM

Cc1ccc(S(C)(=O)=O)cc1-c1cnc2c(N)nc(-c3cccc(OCC#N)c3)cn12 [Example 486, 2-(3-(8-Amino-3-(2-methyl-5-(methylsulfonyl)phenyl)imidazo[1,2-a]pyrazin-6-yl)phenoxy)acetonitrile trifluoroacetate]
IC50 [1]: 100 to 500 nM | IC50 ([2]; Homo sapiens): 100 to 500 nM | IC50 [3]: < 100 nM

Cc1ccc(S(C)(=O)=O)cc1-c1cnc2c(N)nc(-c3ccc(C(C)O)cc3F)cn12 (stereo not drawn) [Example 488, 1-(4-(8-Amino-3-(2-methyl-5-(methylsulfonyl)phenyl)imidazo[1,2-a]pyrazin-6-yl)-3-fluorophenyl)ethan-1-ol]
IC50 [1]: 100 to 500 nM | IC50 ([2]; Homo sapiens): 100 to 500 nM | IC50 [3]: < 100 nM

Cc1cc(-c2cn3c(-c4cc(S(C)(=O)=O)ccc4C)cnc3c(N)n2)c(F)cn1 [Example 489, 6-(5-Fluoro-2-methylpyridin-4-yl)-3-(2-methyl-5-(methylsulfonyl)phenyl)imidazo[1,2-a]pyrazin-8-amine trifluoroacetate]
IC50 [1]: 100 to 500 nM | IC50 ([2]; Homo sapiens): 100 to 500 nM | IC50 [3]: < 100 nM
